Data: patent US20230285405A1, “Pharmaceuticals for Treating or Preventing Nidoviruses and Picornaviruses” (priority 2020, published 2023)
Counter-ions that a name gives are not always drawn. Like-named read-outs stand apart in the source and are kept apart here.

Tests used:
[1] = tested on: OC43; assay: Drug screening: OC43 nucleoprotein staining in infected A549-mRuby cells; format: cell-based, human beta coronavirus OC43
Method in brief: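 A549 cells expressing H2B-mRuby infected with OC43 at MOI 0.3 for 1 h at 33° C, then drugs added at 10 μM final and incubated 4 days at 33° C. Viral nucleoprotein immunostained and imaged; intensity normalized to cell number and no-drug controls (=100). Hits reduced staining >3 SD in both repeats without toxicity.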

[2] = tested on: A549-mRuby cells; assay: Drug screening: effect on cell growth (cell number day 4 / day 0); conditions: 10 μM drug; for Growth_1: number of cells at day 4 divided by number of cells at day 0 / toxic_1: repeat #1; for Growth_2: number of cells at day 4 divided by number of cells at day 0 / toxic_2: repeat #2
Method in brief: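 A549 cells carrying an H2B-mRuby reporter were infected with OC43 at MOI 0.3 for 1 h at 33° C, then given drug at 10 μM final. Cell numbers were counted by imaging at day 0 and again at day 4 after 4 days at 33° C, 5% CO2, with the screen run twice.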

[3] = Betacoronavirus 1, OC43, 96 h, 10 μM drug, MOI 0.3, 4 days, OC43 staining normalized to no-drug controls, mean of the two screen repeats, read-out: OC43_mean
[4] = Betacoronavirus 1, OC43, 96 h, 10 μM drug, MOI 0.3, 4 days, normalized to no-drug controls in the same plate, repeat #1, read-out: OC43_1: % staining of OC43 in screen repeat #1
[5] = Betacoronavirus 1, OC43, 96 h, 10 μM drug, MOI 0.3, 4 days, normalized to no-drug controls in the same plate, repeat #2, read-out: OC43_2: % staining of OC43 in screen repeat #2
[6] = 10 μM drug, MOI 0.3, 4 days, OC43 staining normalized to no-drug controls, mean of the two screen repeats
[7] = 10 μM drug, MOI 0.3, 4 days, normalized to no-drug controls in the same plate, repeat #1
[8] = 10 μM drug, MOI 0.3, 4 days, normalized to no-drug controls in the same plate, repeat #2

CN1CCN(CCOc2cc(OC3CCOCC3)c3c(Nc4c(Cl)ccc5c4OCO5)ncnc3c2)CC1 [Saracatinib (AZD0530), Saracatinib]
hit_1 ([1]; 10 μM drug, repeat #1): 1
hit_2 ([1]; 10 μM drug, repeat #2): 1
activity at 10 µM [1, 3]: 22.7%
activity at 10 µM [1, 4]: 21.2%
activity at 10 µM [1, 5]: 24.1%
Growth_1: number of cells at day 4 divided by number of cells at day 0 [2]: 3.1
toxic_1 [2]: 0
Growth_2: number of cells at day 4 divided by number of cells at day 0 [2]: 4.0
toxic_2 [2]: 0

COc1cccc(CCc2ccccc2OCC(CN(C)C)OC(=O)CCC(=O)O)c1 (stereo not drawn) [Sarpogrelate hydrochloride]
hit_1 ([1]; 10 μM drug, repeat #1): 1
hit_2 ([1]; 10 μM drug, repeat #2): 1
activity at 10 µM [1, 3]: 25.9%
activity at 10 µM [1, 4]: 26.8%
activity at 10 µM [1, 5]: 24.9%
Growth_1: number of cells at day 4 divided by number of cells at day 0 [2]: 5.0
toxic_1 [2]: 0
Growth_2: number of cells at day 4 divided by number of cells at day 0 [2]: 5.4
toxic_2 [2]: 0

O=C(O[C@H]1CN2CCC1CC2)N1CCc2ccccc2[C@@H]1c1ccccc1 [Solifenacin]
hit_1 ([1]; 10 μM drug, repeat #1): 1
hit_2 ([1]; 10 μM drug, repeat #2): 1
activity at 10 µM [1, 3]: 25%
activity at 10 µM [1, 4]: 20.4%
activity at 10 µM [1, 5]: 29.6%
Growth_1: number of cells at day 4 divided by number of cells at day 0 [2]: 4.3
toxic_1 [2]: 0
Growth_2: number of cells at day 4 divided by number of cells at day 0 [2]: 3.4
toxic_2 [2]: 0

CN1CCC(COc2cnc(-c3cccc(Cn4nc(-c5cccc(C#N)c5)ccc4=O)c3)nc2)CC1 [Tepotinib (EMD 1214063), Tepotinib]
hit_1 ([1]; 10 μM drug, repeat #1): 1
hit_2 ([1]; 10 μM drug, repeat #2): 1
activity at 10 µM [1, 3]: 28.9%
activity at 10 µM [1, 4]: 15.3%
activity at 10 µM [1, 5]: 42.6%
Growth_1: number of cells at day 4 divided by number of cells at day 0 [2]: 5.3
toxic_1 [2]: 0
Growth_2: number of cells at day 4 divided by number of cells at day 0 [2]: 5.2
toxic_2 [2]: 0

C[C@@H]1CCN(C(=O)CC#N)C[C@@H]1N(C)c1ncnc2[nH]ccc12.O=C(O)CC(O)(CC(=O)O)C(=O)O [Tofacitinib (CP-690550) Citrate]
OC43_mean [1, 6]: 58.5%
OC43_1: % staining of OC43 in screen repeat #1 [1, 7]: 56.5%
OC43_2: % staining of OC43 in screen repeat #2 [1, 8]: 60.4%
hit_1 ([1]; 10 μM drug, repeat #1): 1
hit_2 ([1]; 10 μM drug, repeat #2): 1
Growth_1: number of cells at day 4 divided by number of cells at day 0 [2]: 4.8
toxic_1 [2]: 0
Growth_2: number of cells at day 4 divided by number of cells at day 0 [2]: 4.7
toxic_2 [2]: 0

CN1CCN(CCCN2c3ccccc3Sc3ccc(C(F)(F)F)cc32)CC1.Cl.Cl [Trifluoperazine 2HCl]
OC43_mean [1, 6]: 31.6%
OC43_1: % staining of OC43 in screen repeat #1 [1, 7]: 33.8%
OC43_2: % staining of OC43 in screen repeat #2 [1, 8]: 29.5%
hit_1 ([1]; 10 μM drug, repeat #1): 1
hit_2 ([1]; 10 μM drug, repeat #2): 1
Growth_1: number of cells at day 4 divided by number of cells at day 0 [2]: 2.3
toxic_1 [2]: 0
Growth_2: number of cells at day 4 divided by number of cells at day 0 [2]: 2.1
toxic_2 [2]: 0

CN1[C@@H]2CC[C@H]1C[C@@H](OC(=O)c1c[nH]c3ccccc13)C2 [Tropisetron HCl]
hit_1 ([1]; 10 μM drug, repeat #1): 1
hit_2 ([1]; 10 μM drug, repeat #2): 1
activity at 10 µM [1, 3]: 58%
activity at 10 µM [1, 4]: 52.6%
activity at 10 µM [1, 5]: 63.4%
Growth_1: number of cells at day 4 divided by number of cells at day 0 [2]: 5.8
toxic_1 [2]: 0
Growth_2: number of cells at day 4 divided by number of cells at day 0 [2]: 5.5
toxic_2 [2]: 0

C=C[C@]1(C)C[C@@H](OC(=O)CSC(C)(C)CNC(=O)[C@H](N)C(C)C)[C@]2(C)[C@H](C)CC[C@]3(CCC(=O)[C@H]32)[C@@H](C)[C@@H]1O [Valnemulin HCl]
hit_1 ([1]; 10 μM drug, repeat #1): 1
hit_2 ([1]; 10 μM drug, repeat #2): 1
activity at 10 µM ([1]; Betacoronavirus 1, 96 h, 10 μM drug, MOI 0.3, 4 days, OC43 staining normalized to no-drug controls, mean of the two screen repeats, read-out: OC43_mean): 32.4%
activity at 10 µM [1, 4]: 27.7%
activity at 10 µM [1, 5]: 37.1%
Growth_1: number of cells at day 4 divided by number of cells at day 0 [2]: 4.4
toxic_1 [2]: 0
Growth_2: number of cells at day 4 divided by number of cells at day 0 [2]: 4.5
toxic_2 [2]: 0

CCOC(=O)N[C@@H]1CC[C@@H]2[C@@H](C1)C[C@H]1C(=O)O[C@H](C)[C@H]1[C@H]2/C=C/c1ccc(-c2cccc(F)c2)cn1 [Vorapaxar]
hit_1 ([1]; 10 μM drug, repeat #1): 1
hit_2 ([1]; 10 μM drug, repeat #2): 1
activity at 10 µM [1, 3]: 50.9%
activity at 10 µM [1, 4]: 53.5%
activity at 10 µM [1, 5]: 48.3%
Growth_1: number of cells at day 4 divided by number of cells at day 0 [2]: 4.4
toxic_1 [2]: 0
Growth_2: number of cells at day 4 divided by number of cells at day 0 [2]: 4.1
toxic_2 [2]: 0

Cc1cc(C(C)(C)C)cc(C)c1CC1=NCCN1 [Xylometazoline HCl]
hit_1 ([1]; 10 μM drug, repeat #1): 1
hit_2 ([1]; 10 μM drug, repeat #2): 1
activity at 10 µM [1, 3]: 49.7%
activity at 10 µM [1, 4]: 54%
activity at 10 µM [1, 5]: 45.4%
Growth_1: number of cells at day 4 divided by number of cells at day 0 [2]: 5.4
toxic_1 [2]: 0
Growth_2: number of cells at day 4 divided by number of cells at day 0 [2]: 5.7
toxic_2 [2]: 0

Alimemazine Tartrate
OC43_mean [1, 6]: 40.8%
OC43_1: % staining of OC43 in screen repeat #1 [1, 7]: 47.9%
OC43_2: % staining of OC43 in screen repeat #2 [1, 8]: 33.7%
hit_1 ([1]; 10 μM drug, repeat #1): 1
hit_2 ([1]; 10 μM drug, repeat #2): 1
Growth_1: number of cells at day 4 divided by number of cells at day 0 [2]: 2.6
toxic_1 [2]: 0
Growth_2: number of cells at day 4 divided by number of cells at day 0 [2]: 2.2
toxic_2 [2]: 0

Carvedilol Phosphate
OC43_mean [1, 6]: 28.9%
OC43_1: % staining of OC43 in screen repeat #1 [1, 7]: 32.3%
OC43_2: % staining of OC43 in screen repeat #2 [1, 8]: 25.5%
hit_1 ([1]; 10 μM drug, repeat #1): 1
hit_2 ([1]; 10 μM drug, repeat #2): 1
Growth_1: number of cells at day 4 divided by number of cells at day 0 [2]: 4.4
toxic_1 [2]: 0
Growth_2: number of cells at day 4 divided by number of cells at day 0 [2]: 2.9
toxic_2 [2]: 0

Dimemorfan phosphate
OC43_mean [1]: 33.0%
OC43_1: % staining of OC43 in screen repeat #1 [1, 7]: 39.7%
OC43_2: % staining of OC43 in screen repeat #2 [1, 8]: 26.2%
hit_1 ([1]; 10 μM drug, repeat #1): 1
hit_2 ([1]; 10 μM drug, repeat #2): 1
Growth_1: number of cells at day 4 divided by number of cells at day 0 [2]: 6.0
toxic_1 [2]: 0
Growth_2: number of cells at day 4 divided by number of cells at day 0 [2]: 5.4
toxic_2 [2]: 0

Ibutilide Fumarate
OC43_mean [1, 6]: 54.4%
OC43_1: % staining of OC43 in screen repeat #1 [1, 7]: 45.9%
OC43_2: % staining of OC43 in screen repeat #2 [1, 8]: 63.0%
hit_1 ([1]; 10 μM drug, repeat #1): 1
hit_2 ([1]; 10 μM drug, repeat #2): 1
Growth_1: number of cells at day 4 divided by number of cells at day 0 [2]: 4.8
toxic_1 [2]: 0
Growth_2: number of cells at day 4 divided by number of cells at day 0 [2]: 4.8
toxic_2 [2]: 0

Ifenprodil Tartrate
OC43_mean [1, 6]: 25.6%
OC43_1: % staining of OC43 in screen repeat #1 [1, 7]: 29.0%
OC43_2: % staining of OC43 in screen repeat #2 [1, 8]: 22.1%
hit_1 ([1]; 10 μM drug, repeat #1): 1
hit_2 ([1]; 10 μM drug, repeat #2): 1
Growth_1: number of cells at day 4 divided by number of cells at day 0 [2]: 4.6
toxic_1 [2]: 0
Growth_2: number of cells at day 4 divided by number of cells at day 0 [2]: 4.9
toxic_2 [2]: 0

Pizotifen Malate
OC43_mean [1, 6]: 25.4%
OC43_1: % staining of OC43 in screen repeat #1 [1, 7]: 33.3%
OC43_2: % staining of OC43 in screen repeat #2 [1, 8]: 17.5%
hit_1 ([1]; 10 μM drug, repeat #1): 1
hit_2 ([1]; 10 μM drug, repeat #2): 1
Growth_1: number of cells at day 4 divided by number of cells at day 0 [2]: 3.4
toxic_1 [2]: 0
Growth_2: number of cells at day 4 divided by number of cells at day 0 [2]: 2.8
toxic_2 [2]: 0

Prochlorperazine dimaleate salt
OC43_mean [1, 6]: 40.2%
OC43_1: % staining of OC43 in screen repeat #1 [1, 7]: 47.2%
OC43_2: % staining of OC43 in screen repeat #2 [1, 8]: 33.1%
hit_1 ([1]; 10 μM drug, repeat #1): 1
hit_2 ([1]; 10 μM drug, repeat #2): 1
Growth_1: number of cells at day 4 divided by number of cells at day 0 [2]: 3.1
toxic_1 [2]: 0
Growth_2: number of cells at day 4 divided by number of cells at day 0 [2]: 3.1
toxic_2 [2]: 0
